Data: patent US9079859B2, “Synthetic lethal targeting of glucose transport” (AUCKLAND UNISERVICES LIMITED, priority 2011, dated 2015)

What was measured:
p53 = experiment: DNA damage response (p53, phospho-p53 Western blot); format: cell-based; details: RCC4 and RCC4/VHL; 1.25, 2.5 and 5 μM
RCC4 cells = experiment: Glucose uptake (2-deoxy-D-[3H]glucose), RCC4; format: cell-based
Procedure: Glucose Uptake. One hundred thousand cells were plated per well in a six-well plate. The next day, cells were treated with the indicated concentration of drug and incubated for the indicated time. Cells were then washed twice with phosphate-buffered saline, incubated in low-glucose medium for 30 minutes, and 3H-2-deoxyglucose (0.5 μCi) was added in 1 ml of glucose-free media for an additional hour. Cells were washed twice in PBS and lysed (0.2 N NaOH and 0.2% sodium dodecyl sulfate). Glucose uptake was quantified with a scintillation counter.

hexokinase [1] = experiment: Hexokinase activity in whole-cell lysates, RCC4; format: cell-based; details: only after three days of treatment
Source text: (§1) We then examined whether this decrease in glycolysis in response to STF-31 was due to a decrease in glucose uptake or whether STF-31 inhibited a particular glycolytic enzyme. To test this, we measured glucose uptake using 2-deoxy-D-[^3H] glucose, a non-hydrolyzable, radioactive glucose analog. STF-31 impaired glucose uptake in RCC4 and 786-O cells but not in the matched isogenic cells expressing wild-type VHL (FIGS. 2B, 6A, and 6C). RCC4/VHL cells had lower baseline levels of glucose uptake compared to RCC4 cells and were unaffected by treatment with STF-31. […] Because the phosphorylation of glucose to glucose-6-phosphate is important for preventing glucose efflux from the cell, we asked whether STF-31 might function by inhibiting the phosphorylation of glucose by hexokinase. […]
(§2) Cell Culture and Reagents. […] GLUT1 was detected with anti-GLUT1 antibody from NeoMarkers/LabVision/Fisher. For immunofluorescent studies, GLUT1, GLUT2, and GLUT3 antibodies were purchased from R&D. Pyruvate/lactate levels and hexokinase activity were both measured by fluorometric assay (BioVision and Sigma-Aldrich, respectively). ATP levels were measured by bioluminescence assay (ATP Determination Kit from Molecular Probes/Invitrogen). […]

786-0 = experiment: RCC panel sensitivity (Table 2); format: cell-based; details: 786-0, VHL mutant
hexokinase [2] = experiment: Hexokinase activity in whole-cell lysates, RCC4/VHL; format: cell-based
Source text: as §1, §2

50 different kinases = experiment: In vitro kinase panel (Millipore Kinase Profiler); format: biochemical
Procedure: Cell Culture and Reagents. All cells were grown in DMEM+10% FCS. ACHN and ACHN shVHL were a kind gift from George V. Thomas (UCLA). HIF overexpressing clones were described previously (Sutphin et al., Cancer Res, 67:5896-5905 (2007)). Transfection of RNA oligos were performed with DnarmaFECT Reagent 1 (Dharmcon), according to manufacturer's directions. ON-TARGETplus SMART pools against HIF-1 R/ARNT were purchased from Dharmacon. Inducible shRNAmir to GLUT1 was purchased from Open Biosystems. GLUT1 was detected with anti-GLUT1 antibody from NeoMarkers/LabVision/Fisher. For immunofluorescent studies, GLUT1, GLUT2, and GLUT3 antibodies were purchased from R&D. Pyruvate/lactate levels and hexokinase activity were both measured by fluorometric assay (BioVision and Sigma-Aldrich, respectively). ATP levels were measured by bioluminescence assay (ATP Determination Kit from Molecular Probes/Invitrogen). In vitro kinase activities were performed by Millipore Kinase Profiler.

SN12C shVHL = experiment: RCC panel sensitivity (Table 2); format: cell-based; details: VHL silenced

## CC(C)(C)c1ccc(S(=O)(=O)NCc2ccc(C(=O)Nc3cccnc3)cc2)cc1 [STF-31]
p53
  total p53 or phospho-p53 levels: did not increase
RCC4 cells; 2-deoxy-D-[3H]glucose
  glucose uptake in RCC4 cells: impaired
RCC4 cells; increasing concentrations of STF-31
  glucose uptake in RCC4 cells versus concentration: dose-dependent
Hexokinase [1]
  hexokinase activity in RCC4 cells: inhibited
786-0
  3-series sensitivity (sensitivity to STF-31): Yes
Hexokinase [2]
  hexokinase activity of RCC4/VHL cells: unchanged
50 different kinases
  kinase inhibition across 50 different kinases: no significant decrease
SN12C shVHL
  3-series sensitivity (sensitivity to STF-31): Yes
